Results reported in patent EP4656642A1, “ESTROGEN RECEPTOR PROTEOLYSIS TARGETING CHIMERA COMPOUND AND USE THEREOF” (GAN & LEE PHARM CO., LTD, priority 2023, dated 2024).

How the values were obtained:
Format in all cases: cell-based
T-47D cells = assay: Inhibition of cell proliferation in T-47D cells (CCK-8, 6 days); details: 6 days of treatment
How it was run: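 T-47D cells at 3,000 cells/well in RPMI 1640 with 10% FBS were exposed to a concentration series of PROTAC compounds for 6 days at 37 °C, 5% CO2. Viability was read by CCK-8, and IC50 values were derived for proliferation inhibition.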

MCF-7 cells = assay: Inhibition of cell proliferation of MCF-7 cells (CCK-8, 9 days)
How it was run: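 MCF-7 cells seeded at 800 cells/well in DMEM with 10% FBS, exposed to a range of compound concentrations for 9 days at 37°C, 5% CO2. Viability read by CCK-8; IC50 derived for proliferation inhibition.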

ERα [1] = biological target: T1, ERα (Homo sapiens, UniProt P03372); assay: Degradation of ERα in MCF-7 cells (immunoblotting, 4 h)
T1 sequence (P03372 1-595): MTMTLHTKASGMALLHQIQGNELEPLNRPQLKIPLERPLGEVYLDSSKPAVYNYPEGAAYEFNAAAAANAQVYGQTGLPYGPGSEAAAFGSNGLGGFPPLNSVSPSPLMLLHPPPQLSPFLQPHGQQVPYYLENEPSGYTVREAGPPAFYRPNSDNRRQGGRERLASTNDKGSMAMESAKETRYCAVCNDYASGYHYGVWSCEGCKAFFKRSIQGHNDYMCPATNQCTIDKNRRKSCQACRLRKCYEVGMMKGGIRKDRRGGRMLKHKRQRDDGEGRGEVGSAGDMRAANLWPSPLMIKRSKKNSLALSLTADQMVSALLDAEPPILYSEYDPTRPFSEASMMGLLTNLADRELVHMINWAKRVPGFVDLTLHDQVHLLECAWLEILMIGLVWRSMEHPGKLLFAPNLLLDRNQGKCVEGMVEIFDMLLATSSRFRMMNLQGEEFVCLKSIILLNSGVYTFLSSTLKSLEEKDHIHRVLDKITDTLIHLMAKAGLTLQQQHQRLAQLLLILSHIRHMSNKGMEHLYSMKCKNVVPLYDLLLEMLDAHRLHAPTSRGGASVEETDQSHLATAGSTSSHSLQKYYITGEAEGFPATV
How it was run: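 MCF-7 cells treated 4 h at 37°C with compounds at 0.15-1000nM final. ERα in lysates measured by immunoblot, with band grayscale normalized to an internal reference protein. Degradation rate calculated against DMSO-treated control.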

ERα [2] = biological target: T1, ERα; assay: Degradation of ERα in T-47D cells (immunoblotting, 4 h); parameters: host or cells: T-47D
How it was run: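 T-47D cells were treated with compound (final 0.15-1000 nM, DMSO) for 4 h at 37°C, 5% CO2. Cells were lysed in RIPA buffer with protease inhibitor, and ERα protein in the cleared lysate was measured by immunoblotting.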

[3] = treated for 9 days, CCK-8 kit (Table 6)

SMILES	IC50 (T-47D cells; Table 3) [nM]	IC50 (MCF-7 cells; [3]) [nM]	Degradation rate (%) of ERα in MCF-7 cells (ERα [1]; 1nM compound) [%]	Degradation rate (%) of ERα in MCF-7 cells (ERα [1]; 10nM compound) [%]	Degradation rate (%) of ERα in T-47D cells (ERα [2]; 1nM compound) [%]	Degradation rate (%) of ERα in T-47D cells (ERα [2]; 10nM compound) [%]	IC50 (T-47D cells; Table 2) [nM]	IC50 (MCF-7 cells; 9 days of treatment, CCK-8, Table 5) [nM]
O=C1CCC(N2Cc3c(ccc4c3OCC43CCN(CC(=O)N4CCC5(CCN(c6ccc([C@@H]7c8ccc(O)cc8CC[C@@H]7c7ccccc7)cc6)C5)C4)CC3)C2=O)C(=O)N1 (stereo partly drawn) [H19]	1.8	151	27	21	39	55	–	–
C[C@@H]1Cc2c(ccc3[nH]ncc23)C(c2ccc(N3CCC4(CCN(C(=O)CN5CCC6(CC5)COc5c6ccc6c5CN(C5CCC(=O)NC5=O)C6=O)CC4)CC3)cn2)N1CC(F)(F)F (stereo partly drawn) [J15]	3.49	22000	33	66	49	80	–	–
O=C1CCC(N2Cc3c(ccc4c3OCC43CCN(CC4CCN(C(=O)C5CCN(c6ccc([C@@H]7c8ccc(O)cc8CC[C@@H]7c7ccccc7)cc6)CC5)CC4)CC3)C2=O)C(=O)N1 (stereo partly drawn) [A100]	0.84	2.27	65	73	77	84	–	–
O=C1CCC(N2Cc3ccc4c(c3C2=O)OCC42CCN(C3CC4(CCN(c5ccc([C@@H]6c7ccc(O)cc7CC[C@@H]6c6ccccc6)cc5)CC4)C3)CC2)C(=O)N1 (stereo partly drawn) [L26]	6.52	828	10	18	-11	30	–	–
C[C@@H]1Cc2c([nH]c3ccccc23)[C@@H](c2c(F)cc(N3CCC4(CCC(N5CCC6(CC5)COc5c6ccc6c5CN(C5CCC(=O)NC5=O)C6=O)CC4)CC3)cc2F)N1CC(F)F (stereo partly drawn) [A103]	2.99	13.6	37	70	29	68	–	–
O=C1CCC(N2Cc3cc4c(cc3C2=O)CCC2(CN(C3CCC5(CC3)CCN(c3ccc([C@@H]6c7ccc(O)cc7CC[C@@H]6c6ccccc6)cc3)CC5)C2)O4)C(=O)N1 (stereo partly drawn) [A33]	–	–	-7	26	12	56	9.2	30
O=C1CCC(N2Cc3c(ccc4c3OCC43CCN(C(=O)CN(CC4CC4)CC4CCN(c5ccc([C@@H]6c7ccc(O)cc7CC[C@@H]6c6ccccc6)cc5)CC4)CC3)C2=O)C(=O)N1 (stereo partly drawn) [J16]	1.58	2250	17	47	35	68	–	–
C[C@@H]1Cc2c([nH]c3ccccc23)[C@@H](c2c(F)cc(N3CC4(CCC(N5CCC6(CC5)COc5c6ccc6c5CN(C5CCC(=O)NC5=O)C6=O)CC4)C3)cc2F)N1CC(F)F (stereo partly drawn) [A104]	17.1	30.3	15	70	35	72	–	–
O=C1CCC(N2Cc3c(ccc4c3OCC43CCN(C4CCN(C(=O)C5CCN(c6ccc([C@@H]7c8ccc(O)cc8CC[C@@H]7c7ccccc7)cc6)CC5)[C@@H](C(=O)N5CCC(F)(F)C5)C4)CC3)C2=O)C(=O)N1 (stereo partly drawn) [C2]	1.68	31.1	42	63	49	81	–	–
O=C1CCC(N2Cc3cc4c(cc3C2=O)CCC2(CN(C(=O)C3CC5(CCN(c6ccc([C@@H]7c8ccc(O)cc8CC[C@@H]7c7ccccc7)cc6)CC5)C3)C2)O4)C(=O)N1 (stereo partly drawn) [A48]	12.3	7440	4	11	-37	23	–	–
O=C1CCC(N2C(=O)c3cc4c(cc3C2=O)C2(CCN(C3CC5(CCN(c6ccc([C@@H]7c8ccc(O)cc8CC[C@@H]7c7ccccc7)cc6)CC5)C3)CC2)CO4)C(=O)N1 (stereo partly drawn) [A34]	68	174	4	13	5	28	–	–
C[C@@H]1Cc2c(ccc3[nH]ncc23)C(c2c(F)cc(N3CC4(CCC(N5CCC6(CC5)COc5c6ccc6c5CN(C5CCC(=O)NC5=O)C6=O)CC4)C3)cc2F)N1CC(F)F (stereo partly drawn) [G21]	25.1	8.6	45	57	34	63	–	–
O=C1CCC(N2Cc3cc4c(cc3C2=O)CCC2(CN(CC3CC5(CCN(c6ccc([C@@H]7c8ccc(O)cc8CC[C@@H]7c7ccccc7)cc6)CC5)C3)C2)O4)C(=O)N1 (stereo partly drawn) [B12]	33	950	-8	-11	-17	-4	–	–
O=C1CCC(N2Cc3c(ccc4c3OCC43CCN(CC(=O)N4CC5(CCN(c6ccc([C@@H]7c8ccc(O)cc8CC[C@@H]7c7ccccc7)cc6)CC5)C4)CC3)C2=O)C(=O)N1 (stereo partly drawn) [K5]	1.61	132	30	58	73	85	–	–
O=C1CCC(N2Cc3c(ccc4c3OCC43CCN(C4CCN(C5CC6(CCN(c7ccc([C@@H]8c9ccc(O)cc9CC[C@@H]8c8ccccc8)cc7)CC6)C5)[C@H](C(=O)NC5CCCC5)C4)CC3)C2=O)C(=O)N1 (stereo partly drawn) [H44]	3.74	5.06	36	73	53	85	–	–
